In PubChem BioAssay AID212 (DTP/NCI, 2004) one finds T/C data, which are given here for 13 molecules.

“And” between values parts separate entries of the source, which are not always exact repeats. Equal entries are not always repeated. Records with an inconclusive call do not appear.

The test system of the test is BDF1 mice, colon carcinoma 38 sc, T/C %. As to the kind of experiment: NCI In Vivo Anticancer Drug Screen. Data for tumor model Colon Carcinoma 38 (subcutaneous) in B6D2F1 (BDF1) mice. The conditions noted are these: endpoint: median tumor weight (est.), higher = larger tumour. The gist of the method: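 Transplantable tumor in mice; compound-treated vs vehicle-dosed controls. Measured survival or tumor size; value = T ÷ C.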

[1] abbreviates: dose: 1.0 mg/kg/injection, schedule: Q07DX002 (ip), vehicle: saline.
Where [2] appears, read: dose: 2.0 mg/kg/injection, schedule: Q07DX002 (ip), vehicle: saline.
[3] abbreviates: dose: 3.0 mg/kg/injection, schedule: Q07DX002 (ip), vehicle: saline.
Setting [4] is: dose: 6.0 mg/kg/injection, schedule: Q07DX002 (ip), vehicle: saline.
Where [5] appears, read: dose: 8.0 mg/kg/injection, schedule: Q07DX002 (ip), vehicle: saline.
[6] abbreviates: dose: 12.0 mg/kg/injection, schedule: Q07DX002 (ip), vehicle: saline.
The mark [7] stands for this setting: dose: 12.5 mg/kg/injection, schedule: Q07DX002 (ip), vehicle: saline with Tween-80.
Where [8] appears, read: dose: 100.0 mg/kg/injection, schedule: Q07DX002 (ip), vehicle: saline with Tween-80.
Setting [9] is: dose: 200.0 mg/kg/injection, schedule: Q07DX002 (ip), vehicle: saline with Tween-80.

For the molecule `NC(=O)c1csc(C2OC(CO)C(O)C2O)n1` (centres undefined), the T/C was 154 % of control (dose: 50.0 mg/kg/injection, schedule: Q07DX002 (ip), vehicle: water); 121 % of control and 106 % of control (dose: 100.0 mg/kg/injection, schedule: Q07DX002 (ip), vehicle: water); 111 % of control and 92 % of control (dose: 200.0 mg/kg/injection, schedule: Q07DX002 (ip), vehicle: water); 124 % of control and 104 % of control (dose: 400.0 mg/kg/injection, schedule: Q07DX002 (ip), vehicle: water); 72 % of control (dose: 800.0 mg/kg/injection, schedule: Q07DX002 (ip), vehicle: water).

On to `O=c1cc(-c2ccccc2)[nH]c2c1CCCC2`, for which the T/C (dose: 900.0 mg/kg/injection, schedule: Q07DX002 (ip), vehicle: saline with Tween-80) is 101 % of control.

For `Nc1ncn(C2CC(O)C(CO)O2)c(=O)n1` (centres undefined), the T/C is 102 % of control (dose: 0.5 mg/kg/injection, schedule: Q07DX002 (ip), vehicle: Klucel (hydroxypropylcellulose) (HPC)); 90 % of control (dose: 0.5 mg/kg/injection, schedule: Q07DX002 (ip), vehicle: saline); 113 % of control (dose: 1.0 mg/kg/injection, schedule: Q07DX002 (ip), vehicle: Klucel (hydroxypropylcellulose) (HPC)); 99 % of control under setting [1]; 86 % of control (dose: 2.0 mg/kg/injection, schedule: Q07DX002 (ip), vehicle: Klucel (hydroxypropylcellulose) (HPC)); 75 % of control under setting [2]. The T/C under setting [3] is 14 % of control and 34 % of control; the T/C (dose: 4.0 mg/kg/injection, schedule: Q07DX002 (ip), vehicle: Klucel (hydroxypropylcellulose) (HPC)) was 106 % of control; the T/C (dose: 4.0 mg/kg/injection, schedule: Q07DX002 (ip), vehicle: saline) was 43 % of control; the T/C under setting [4] is 29 % of control and 46 % of control; the T/C (dose: 8.0 mg/kg/injection, schedule: Q07DX002 (ip), vehicle: Klucel (hydroxypropylcellulose) (HPC)) was 60 % of control; the T/C under setting [5] was 28 % of control. Further, the T/C reads like this: under setting [6], 23 % of control; (dose: 16.0 mg/kg/injection, schedule: Q07DX002 (ip), vehicle: Klucel (hydroxypropylcellulose) (HPC)) 41 % of control; (dose: 16.0 mg/kg/injection, schedule: Q07DX002 (ip), vehicle: saline) 22 % of control; (dose: 32.0 mg/kg/injection, schedule: Q07DX002 (ip), vehicle: Klucel (hydroxypropylcellulose) (HPC)) 43 % of control; (dose: 32.0 mg/kg/injection, schedule: Q07DX002 (ip), vehicle: saline) 4 % of control.

Turning to `CC(C)CCCCCCCCCCCCC(=O)NCC(=O)NC1C(C)OC(Nc2ncnc3nc[nH]c23)C(O)C1O` (centres undefined), where the note is “dose: 0.5 mg/kg/injection, schedule: Q07DX002 (ip), vehicle: distilled water + Tween-80”, the T/C is 105 % of control.

Consider `OC(C1CO1)C(O)C1CO1` (centres undefined), for which the T/C by setting is: under setting [1], 83 % of control; (dose: 1.0 mg/kg/injection, schedule: Q07DX003 (ip), vehicle: saline) 71 % of control and 81 % of control; under setting [2], 114 % of control; (dose: 2.0 mg/kg/injection, schedule: Q07DX003 (ip), vehicle: saline) 70 % of control and 86 % of control; (dose: 4.0 mg/kg/injection, schedule: Q07DX003 (ip), vehicle: saline) 5 % of control and 30 % of control; under setting [5], 58 % of control. The T/C (dose: 8.0 mg/kg/injection, schedule: Q07DX003 (ip), vehicle: saline) is 8 % of control and 20 % of control.

For the molecule `O.O.[NH-]C1CCCCC1[NH-].[Pt+2]` (centres undefined), the T/C was 98 % of control (dose: 1.25 mg/kg/injection, schedule: Q07DX002 (ip), vehicle: dextrose); 61 % of control and 62 % of control (dose: 10.0 mg/kg/injection, schedule: Q07DX002 (ip), vehicle: dextrose); 37 % of control and 43 % of control (dose: 20.0 mg/kg/injection, schedule: Q07DX002 (ip), vehicle: dextrose); 20 % of control (dose: 40.0 mg/kg/injection, schedule: Q07DX002 (ip), vehicle: dextrose).

Turning to `C[n+]1c(/C=N/NC(N)=S)ccc2ccccc21`, the T/C was 115 % of control under setting [7]; 83 % of control (dose: 25.0 mg/kg/injection, schedule: Q07DX002 (ip), vehicle: saline with Tween-80); 77 % of control (dose: 50.0 mg/kg/injection, schedule: Q07DX002 (ip), vehicle: saline with Tween-80); 87 % of control under setting [8]; 108 % of control under setting [9]; 118 % of control (dose: 400.0 mg/kg/injection, schedule: Q07DX002 (ip), vehicle: saline with Tween-80).

Regarding `Cc1ccc(-c2cc(=O)c3cccc(CC(=O)O)c3o2)cc1`, the T/C was 83 % of control under setting [8] and 50 % of control under setting [9].

On to `COC(=O)C(F)C(Br)C(=O)OC` (centres undefined), for which the T/C by setting is: (dose: 6.25 mg/kg/injection, schedule: Q07DX002 (ip), vehicle: saline with Tween-80) 95 % of control and 99 % of control; under setting [7], 63 % of control.

With `COc1cccc2c1C(=O)c1c(O)c3c(c(O)c1C2=O)C[C@@](O)(/C(CO)=N/NC(=O)c1ccc(Cl)c(Cl)c1)C[C@@H]3OC1CC(N)C(O)C(C)O1` (some centres undefined), the T/C is, setting by setting: (dose: 1.5 mg/kg/injection, schedule: Q07DX002 (ip), vehicle: saline) 88 % of control; under setting [3], 115 % of control; under setting [4], 80 % of control; under setting [6], 73 % of control; (dose: 24.0 mg/kg/injection, schedule: Q07DX002 (ip), vehicle: saline) 46 % of control; (dose: 48.0 mg/kg/injection, schedule: Q07DX002 (ip), vehicle: saline) 48 % of control.

Regarding `ClCCCCCCCCCCc1ccccc1`, the T/C is 83 % of control (dose: 12.5 mg/kg/injection, schedule: Q07DX002 (ip), vehicle: Klucel (hydroxypropylcellulose) (HPC)); 77 % of control (dose: 12.5 mg/kg/injection, schedule: Q07DX003 (ip), vehicle: Klucel (hydroxypropylcellulose) (HPC)); 83 % of control (dose: 25.0 mg/kg/injection, schedule: Q07DX002 (ip), vehicle: Klucel (hydroxypropylcellulose) (HPC)); 95 % of control (dose: 25.0 mg/kg/injection, schedule: Q07DX003 (ip), vehicle: Klucel (hydroxypropylcellulose) (HPC)); 63 % of control (dose: 50.0 mg/kg/injection, schedule: Q07DX003 (ip), vehicle: Klucel (hydroxypropylcellulose) (HPC)); 67 % of control (dose: 100.0 mg/kg/injection, schedule: Q07DX002 (ip), vehicle: Klucel (hydroxypropylcellulose) (HPC)). Also, the T/C (dose: 100.0 mg/kg/injection, schedule: Q07DX003 (ip), vehicle: Klucel (hydroxypropylcellulose) (HPC)) was 65 % of control; the T/C (dose: 200.0 mg/kg/injection, schedule: Q07DX002 (ip), vehicle: Klucel (hydroxypropylcellulose) (HPC)) is 80 % of control; the T/C (dose: 200.0 mg/kg/injection, schedule: Q07DX003 (ip), vehicle: Klucel (hydroxypropylcellulose) (HPC)) is 90 % of control; the T/C (dose: 400.0 mg/kg/injection, schedule: Q07DX002 (ip), vehicle: Klucel (hydroxypropylcellulose) (HPC)) was 88 % of control; the T/C (dose: 400.0 mg/kg/injection, schedule: Q07DX003 (ip), vehicle: Klucel (hydroxypropylcellulose) (HPC)) is 51 % of control.

`C(CSC1=NCCN1)CSC1=NCCN1`: the T/C is, setting by setting: (dose: 25.0 mg/kg/injection, schedule: Q07DX002 (ip), vehicle: saline) 112 % of control; (dose: 50.0 mg/kg/injection, schedule: Q07DX002 (ip), vehicle: saline) 96 % of control; (dose: 200.0 mg/kg/injection, schedule: Q07DX002 (ip), vehicle: saline) 120 % of control.

Regarding `C[PH+](C)C.C[PH+](C)C.[Au]`, the T/C reads like this: (dose: 1.25 mg/kg/injection, schedule: Q07DX002 (ip), vehicle: saline) 99 % of control; (dose: 2.5 mg/kg/injection, schedule: Q07DX002 (ip), vehicle: saline) 84 % of control; (dose: 5.0 mg/kg/injection, schedule: Q07DX002 (ip), vehicle: saline) 87 % of control; (dose: 10.0 mg/kg/injection, schedule: Q07DX002 (ip), vehicle: saline) 65 % of control.
